Test results: patent publication US6358736B1, “Method for increasing the antigen presenting ability of leukemia cells” (The United States of America as represented by the …, priority 1995, dated 2002)
Entries after “also recorded” stand apart in the source; their conditions may differ.

B1: MIP-1-alpha: chemokine inducing monocyte chemotaxis (protein, UniProt P10147 24-92, looked up)
C-C motif chemokine 3: SLAADTPTACCFSYTSRQIPQNFIADYFETSSQCSKPGVIFLTKRSRQVCADPSEEWVQKYVSDLELSA
B2: RANTES: chemokine inducing monocyte chemotaxis (protein, UniProt P13501 24-91, looked up)
C-C motif chemokine 5: SPYSSDTTPCCFAYIARPLPRAHIKEYFYTSGKCSNPAVVFVTRKNRQVCANPEKKWVREYINSLEMS
B3: rhIL-12: recombinant human IL-12 (protein, UniProt P29459 23-219; P29460 23-328, looked up)
Interleukin-12 subunit alpha: RNLPVATPDPGMFPCLHHSQNLLRAVSNMLQKARQTLEFYPCTSEEIDHEDITKDKTSTVEACLPLELTKNESCLNSRETSFITNGSCLASRKTSFMMALCLSSIYEDLKMYQVEFKTMNAKLLMDPKRQIFLDQNMLAVIDELMQALNFNSETVPQKSSLEEPDFYKTKIKLCILLHAFRIRAVTIDRVMSYLNAS
Interleukin-12 subunit beta: IWELKKDVYVVELDWYPDAPGEMVVLTCDTPEEDGITWTLDQSSEVLGSGKTLTIQVKEFGDAGQYTCHKGGEVLSHSLLLLHKKEDGIWSTDILKDQKEPKNKTFLRCEAKNYSGRFTCWWLTTISTDLTFSVKSSRGSSDPQGVTCGAATLSAERVRGDNKEYEYSVECQEDSACPAAEESLPIEVMVDAVHKLKYENYTSSFFIRDIIKPDPPKNLQLKPLKNSRQVEVSWEYPDTWSTPHSYFSLTFCVQVQGKSKREKKDRVFTDKTSATVICRKNASISVRAQDRYYSSSWSEWASVPCS
B4: rhIL-10: recombinant human IL-10 (protein, UniProt P22301 19-178, looked up)
Interleukin-10: SPGQGTQSENSCTHFPGNLPNMLRDLRDAFSRVKTFFQMKDQLDNLLLKESLLEDFKGYLGCQALSEMIQFYLEEVMPQAENQDPDIKAHVNSLGENLKTLRLRLRRCHRFLPCENKSKAVEQVKNAFNKLQEKGIYKAMSEFDIFINYIEAYMTMKIRN
B5: rhIL-1 alpha: recombinant human IL-1 alpha (protein, UniProt P01583 113-271, looked up)
Interleukin-1 alpha: SAPFSFLSNVKYNFMRIIKYEFILNDALNQSIIRANDQYLTAAALHNLDEAVKFDMGAYKSSKDDAKITVILRISKTQLYVTAQDEDQPVLLKEMPEIPKTITGSETNLLFFWETHGTKNYFTSVAHPNLFIATKQDYWVCLAGGPPSITDFQILENQA

Tested on: human peripheral blood monocytes
Assay: FACS analysis of cell surface markers on cultured peripheral blood monocytes
Type: cell-based
Settings: for effect of agent on ionophore-induced activated myeloid dendritic cell phenotype: added to calcium ionophore treatment; for induction of activated myeloid dendritic cell phenotype (CD80 and CD83 expression): 20-40 hours, wide dose range, alone or in combination
[1] = KT5926 1 uM, 750 ng/ml ionophore, 24 hours

| Molecule | effect of agent on ionophore-induced activated myeloid dendritic cell phenotype | further results |
| --- | --- | --- |
| C[C@H]1O[C@@H](n2cnc3c(N)ncnc32)C[C@@H]1O [2′5′-DDA] | enhanced CD14 downregulation and upregulation of costimulatory, MHC, and other molecule expression | – |
| CN([C@@H](Cc1ccc(OS(=O)(=O)c2cccc3cnccc23)cc1)C(=O)N1CCN(c2ccccc2)CC1)S(=O)(=O)c1cccc2cnccc12 [KN-62] | inhibited at least some of the ionophore's effects | – |
| COC(=O)[C@@]1(OC)C[C@H]2O[C@]1(C)n1c3ccccc3c3c4c(c5c6ccccc6n2c5c31)C(=O)N(C)C4 [KT5823] | inhibited at least some of the ionophore's effects | – |
| CCCOc1ccc2c(c1)c1c3c(c4c5ccccc5n5c4c1n2[C@H]1C[C@](O)(C(=O)OC)[C@]5(C)O1)CNC3=O [KT-5926] | inhibited at least some of the ionophore's effects | suppression of CD40 [1]: > 50%; suppression of CD80 [1]: > 60%; suppression of CD86 [1]: about 50%; suppression of HLA-ABC [1]: over 40%; suppression of HLA-DR [1]: modest, but detectable suppression |
| CCCCC[C@H](O)/C=C/[C@H]1[C@H](O)CC(=O)[C@@H]1C/C=C\CCCC(=O)O [PGE2] | inhibited at least some of the ionophore's effects | – |
| C[C@@H]1[C@H](O)[C@@H](C)/C=C/C=C/C=C/C=C/C=C/C=C/C=C/[C@H](O[C@@H]2O[C@H](C)[C@@H](O)[C@H](N)[C@@H]2O)C[C@@H]2O[C@](O)(C[C@@H](O)C[C@@H](O)[C@H](O)CC[C@@H](O)C[C@@H](O)CC(=O)O[C@H]1C)C[C@H](O)[C@H]2C(=O)O [amphotericin B] | enhanced the induction of an activated myeloid dendritic cell phenotype; also recorded: enhance calcium ionophore's effect | effect of agent alone on monocytes (without ionophore): no or little effect alone |
| CCCC(=O)Nc1ncnc2c1ncn2[C@@H]1O[C@@H]2COP(=O)(O)O[C@H]2[C@H]1OC(=O)CCC [dibutryl cAMP] | inhibited at least some of the ionophore's effects | – |
| CCCC(=O)Nc1nc2c(ncn2C2O[C@H]3COP(=O)(O)O[C@@H]3[C@@H]2OC(=O)CCC)c(=O)[nH]1 (stereo partly drawn) [dibutryl cGMP] | enhanced CD14 downregulation and upregulation of costimulatory, MHC, and other molecule expression | – |
| CO[C@H]1[C@@H](OC)C[C@H](C)[C@@H](OC)C2=CC(=O)C=C(NC(=O)/C(C)=C/C=C\[C@H](OC)[C@@H](OC(N)=O)/C(C)=C/[C@@H]1C)C2=O [herbimycin A] | inhibited at least some of the ionophore's effects | – |
| C[C@H](CCC(=O)O)C[C@H](C)C[C@H](C)C(=O)/C=C(\O)[C@H](C)C[C@H](C)C/C=C/[C@@H](C)[C@@H](O)[C@@H](C)[C@@H](O)C[C@@H]1CC[C@@](C)([C@H]2CC[C@@](C)([C@@H](C)O)O2)O1 [ionomycin] | – | activation and dendritic cell phenotypic conversion of pooled monocyte plus DC fractions (added at the beginning of a 24-48 hr culture period): uniform activation and dendritic cell phenotypic conversion |
| C=C1[C@@H](O)[C@@H]2O[C@]3(CC[C@H](/C=C/[C@@H](C)[C@@H]4CC(C)=C[C@@]5(O[C@H](C[C@@](C)(O)C(=O)O)CC[C@H]5O)O4)O3)CC[C@H]2O[C@@H]1[C@@H](O)C[C@H](C)[C@H]1O[C@@]2(CCCCO2)CC[C@H]1C [okadaic acid] | enhanced CD14 downregulation and upregulation of costimulatory, MHC, and other molecule expression | – |
| C[C@]12C=CC(=O)C=C1CC[C@@H]1[C@@H]2[C@@H](O)C[C@@]2(C)[C@H]1CC[C@]2(O)C(=O)CO [prednisolone] | inhibited at least some of the ionophore's effects | – |
| CN[C@@H]1C[C@H]2O[C@@](C)([C@@H]1OC)n1c3ccccc3c3c4c(c5c6ccccc6n2c5c31)C(=O)NC4 [staurosporine] | enhanced CD14 downregulation and upregulation of costimulatory, MHC, and other molecule expression | – |
| MCP-1: chemokine inducing monocyte chemotaxis | – | induction of activated myeloid dendritic cell phenotype (CD80 and CD83 expression): do not induce monocytes to express the phenotype of activated myeloid dendritic cells |
| rhIL-4: recombinant human IL-4 | enhanced CD14 downregulation and upregulation of costimulatory, MHC, and other molecule expression | – |
| rhIL-6: recombinant human IL-6 | little or no effect | – |
| B1 | – | induction of activated myeloid dendritic cell phenotype (CD80 and CD83 expression): do not induce monocytes to express the phenotype of activated myeloid dendritic cells |
| B2 | – | induction of activated myeloid dendritic cell phenotype (CD80 and CD83 expression): do not induce monocytes to express the phenotype of activated myeloid dendritic cells |
| B3 | enhanced CD14 downregulation and upregulation of costimulatory, MHC, and other molecule expression | – |
| B4 | inhibited at least some of the ionophore's effects | – |
| B5 | little or no effect | – |
